Results taken from patent US12600740B2, “Fluorinated N-acetyl glucosamine analogs and xylose derivatives” (UTI Limited Partnership, priority 2018, dated 2026).

Tests used:
splenocytes = experiment: Splenocyte thymidine proliferation assay (anti-CD3/anti-CD28); assay type: cell-based, mouse; details: for Reduce T cell proliferation: activated splenocytes, significance class
Protocol: It was assessed whether the glucosamine analogs have immunomodulatory properties on splenocytes isolated in culture. T cells within the splenocyte pool were polyclonally activated with anti-CD3 and anti-CD28 antibodies in the presence of compounds for 48 hours, and proliferation was determined by the uptake of tritiated thymidine and expressed as counts per minute. The relative change in proliferation of treated versus control splenocytes was taken in order to rank the compounds across multiple independent experiments (FIG. 8a).
The spleens were isolated from 8-10-week-old female C57BL/6 mice and homogenized. The cells were isolated by Ficoll gradient and spun for 30 min at 1,800 r.p.m. The cell suspension was removed and the cells were washed once with PBS. The cell pellet was subsequently re-suspended in Roswell Park Memorial Institute media containing 10% fetal bovine serum, 1% penicillin/streptomycin, 1% sodium pyruvate and 1% L-glutamine. Trypan blue exclusion was used to count live cells, and the cells were plated at 2.5×10^5 cells per well in a round-bottom 96-well plate and activated with 1,000 ng/ml plate-bound anti-CD3 and 1,000 ng/ml anti-CD28 suspended in media to preferentially activate T lymphocytes. Compounds were added at final concentrations of 25 μM. The cells were kept at 37° C. and 5% CO2 for 30 h, after which 10 μl/well (1 μCi per well) of 3H-thymidine was added for 18 h. The cells containing thymidine were harvested onto filter mats using a cell harvester and mats were allowed to dry for 24 h. The results were read by liquid scintillation counts.

[1] = tested on: CSPG production by astrocytes; experiment: Western blot of astrocyte conditioned medium, MAB2030 (chondroitin sulfate GAG stubs); assay type: cell-based, mouse; details: for effect on CSPG production by astrocytes: astrocyte conditioned media, 50 μM, 48 hours; for Reduce CSPG production: astrocytes, significance class
Source text: Astrocytes are major producers of CSPGs following injury in the CNS [Jones, L. L., Margolis, R. U. & Tuszynski, M. H. The chondroitin sulfate proteoglycans neurocan, brevican, phosphacan, and versican are differentially regulated following spinal cord injury. Experimental Neurology 182, 399-411 (2003); Tang, X., Davies, J. E. & Davies, S. J. Changes in distribution, cell associations, and protein expression levels of NG2, neurocan, phosphacan, brevican, versican V2, and tenascin-C during acute to chronic maturation of spinal cord scar tissue. […] The Journal of neuroscience: the official journal of the Society for Neuroscience 20, 2427-2438 (2000); McKeon, R. J., Jurynec, M. J. & Buck, C. R. The chondroitin sulfate proteoglycans neurocan and phosphacan are expressed by reactive astrocytes in the chronic CNS glial scar. The Journal of neuroscience: the official journal of the Society for Neuroscience 19, 10778-10788 (1999); Haas, C. A., Rauch, U., Thon, N., Merten, T. & Deller, T. Entorhinal cortex lesion in adult rats induces the expression of the neuronal chondroitin sulfate proteoglycan neurocan in reactive astrocytes. The Journal of neuroscience: the official journal of the Society for Neuroscience 19, 9953-9963 (1999)] and they may help drive progression of disability in a model of progressive MS [Mayo, L. et al. Regulation of astrocyte activation by glycolipids drives chronic CNS inflammation. Nature medicine 20, 1147-1156 (2014)]. Therefore astrocytes were used as model cells to determine the ability of the sugar analogs to reduce synthesis of CSPGs. Since CSPGs are exported out of cells, the conditioned media from analog-treated astrocytes were probed by Western blots (FIG. 4). We used antibodies to both the stubs of chondroitin sulfate GAGs attached to the core protein (MAB2030) and to intact 4-sulfated chondroitin sulfate sidechains (2H6) (FIG. 4a). Particularly, we used the 2H6 antibody to label intact 4-sulfated chondroitin sulfate sidechains, and the MAB2030 antibody to detect the stubs of chondroitin sulfate GAGs attached to the core protein. […] 1998, 160 (8), 3812-3819. Poole Poole C. A.; Glant T. T.; Schofield J. R.; Chondrons from articular cartilage. (IV). Immunolocalization of proteoglycan epitopes in isolated canine tibial chondrons. J. Histochem. Cytochem. 1991, 39 (9), 1175-1187].
Astrocytes were plated in uncoated 6-well plates (3 replicate wells per treatment) at 1×10^6 cells/well in mixed glial media, and incubated at 5% CO2 and 37° C. Astrocytes were treated with compounds at 50 μM in AIM-V media for 48 hours. Media was pooled from 3 replicate wells in 15 ml 100K cutoff centricon tubes (EMD Millipore, #UFC905008), which were spun on an ultracentrifuge at 5000× g for 2 cycles of 10 minutes each. When harvested, the cell lysate was kept on ice for 5 minutes with 250 μL of RIPA buffer (ThermoFisher Scientific #89900) containing proteinase inhibitor, and then collected and centrifuged at 14000 g for 5 minutes. Total protein was quantified using a Bradford assay. Conditioned media that were to be probed for chondroitin 4-sulfate GAGs (Millipore, #MAB2030) were first digested with 0.2 U/ml chondroitinase ABC for overnight at 37° C. to remove chondroitin sulfate sidechains. Blots that were to be probed with CSA (2H6, Cosmo) or CS56 (Abcam #ab11570) were not exposed to chondroitinase ABC. Samples were heat denatured with NuPAGE® LDS Sample buffer at 70° C. for 10 minutes and then loaded into 3-8% tris-acetate pre-cast gels (ThermoFisher, #EA0478BOX). The gels were electrophoresed at a constant 150 V for 90 minutes and transferred to a […] polyvinylidene fluoride membrane at a constant 250 mA for 60 minutes. The membranes were blocked for one hour with 10% skim milk in Tris-buffered saline (TBS; 0.9% NaCl, 10 mM Tris-HCl, pH 7.5) containing 0.5% Tween 20 (TBS-T). Primary antibodies were added in 3% skim milk and incubated overnight at 4° C. […]

| Structure (SMILES) | Reduce T cell proliferation (splenocytes) | effect on CSPG production by astrocytes [1] | Reduce CSPG production [1] | splenocyte proliferation (splenocytes; 25 μM, 48 hours) |
| --- | --- | --- | --- | --- |
| COC[C@H]1OC(OC(C)=O)[C@H](NC(C)=O)[C@@H](OC)[C@@H]1F (stereo partly drawn) [Compound 5, 2-Acetamido-1-O-acetyl-2,4-dideoxy-4-fluoro-3,6-di-O-methyl-α/β-D-glucopyranose] | n.s. | did not affect CSPG synthesis | n.s. | – |
| CO[C@H]1[C@H](F)[C@@H](COC(C)=O)OC(OC(C)=O)[C@@H]1NC(C)=O (stereo partly drawn) [Compound 6, 2-Acetamido-1,6-di-O-acetyl-2,4-dideoxy-4-fluoro-3-O-methyl-α/β-D-glucopyranose] | n.s. | did not affect CSPG synthesis | n.s. | – |
| CC(=O)OC[C@H]1OC(OC(C)=O)[C@H](NC(=O)C(F)(F)F)[C@@H](OC(C)=O)[C@@H]1F (stereo partly drawn) [Compound 9, 1,3,6-Tri-O-acetyl-2,4-dideoxy-4-fluoro-2-trifluroacetamido-α/β-D-glucopyranose] | *** (***p < 0.001) | did not lower CSPG production in astrocytes | n.s. | reduced splenocyte proliferation |
| CC(=O)N[C@H]1C(OC(C)=O)O[C@H](COC(C)=O)[C@H](Cl)[C@@H]1OC(C)=O (stereo partly drawn) [Compound 15, 2-Acetamido-1,3,6-tri-O-acetyl-2,4-dideoxy-4-chloro-α/β-D-galactopyranoside] | * (*p < 0.05) | – | n.s. | – |
| O[C@@H]1[C@@H](O)[C@H](OCc2ccccc2)OC[C@H]1O [Compound 19, reference compound] | n.s. | CSPG production was not impacted | n.s. | – |
| CC(=O)O[C@@H]1[C@@H](OC(C)=O)[C@H](OCCO)OC[C@H]1OC(C)=O [Compound 20, 2-Hydroxyethyl 2,3,4-tri-O-acetyl-β-D-xylopyranoside] | – | CSPG production was not impacted | – | – |
| CC(=O)O[C@@H]1[C@@H](OC(C)=O)[C@H](OCCOCCOCCOCCO)OC[C@H]1OC(C)=O [Compound 21, 2-(2-(2-(2-Hydroxyethoxy)ethoxy)ethoxy)ethyl 2,3,4-tri-O-acetyl-β-D-xylopyranoside] | – | effective at reducing CSPGs | – | – |
| CC(=O)O[C@@H]1[C@@H](OC(C)=O)[C@H](OCCS(=O)(=O)[O-])OC[C@H]1OC(C)=O.[Na+] [Compound 22, 2-Sulfoethyl 2,3,4-tri-O-acetyl-β-D-xylopyranoside, sodium salt] | – | CSPG production was not impacted | – | – |
| CC(=O)O[C@@H]1[C@@H](OC(C)=O)[C@@H](OCCCCCCS(=O)(=O)[O-])OC[C@H]1OC(C)=O.[Na+] [Compound 24, 6-Sulfohexyl 2,3,4-tri-O-acetyl-α-D-xylopyranoside, sodium salt] | – | did not act as an inhibitor | – | – |
| CC(=O)O[C@@H]1OC[C@@H](F)[C@H](OC(C)=O)[C@H]1OC(C)=O [Compound 28, 1,2,3-tri-O-acetyl-4-deoxy-4-fluoro-β-D-xylopyranose] | – | did not reduce CSPG production | – | – |
| CC(=O)N[C@H]1C(O)O[C@H](CO)[C@@H](O)[C@@H]1O (stereo partly drawn) [GlcNAc, N-Acetyl-D-glucosamine, reference compound] | – | did not affect CSPG production | – | – |
